Literature values, collected in patent EP0276807A2, “Lipid regulating compositions” (WARNER-LAMBERT COMPANY, priority 1987, dated 1988).

Target: T1, HMG-CoA reductase (Homo sapiens, UniProt P04035)
T1 sequence (P04035 1-888): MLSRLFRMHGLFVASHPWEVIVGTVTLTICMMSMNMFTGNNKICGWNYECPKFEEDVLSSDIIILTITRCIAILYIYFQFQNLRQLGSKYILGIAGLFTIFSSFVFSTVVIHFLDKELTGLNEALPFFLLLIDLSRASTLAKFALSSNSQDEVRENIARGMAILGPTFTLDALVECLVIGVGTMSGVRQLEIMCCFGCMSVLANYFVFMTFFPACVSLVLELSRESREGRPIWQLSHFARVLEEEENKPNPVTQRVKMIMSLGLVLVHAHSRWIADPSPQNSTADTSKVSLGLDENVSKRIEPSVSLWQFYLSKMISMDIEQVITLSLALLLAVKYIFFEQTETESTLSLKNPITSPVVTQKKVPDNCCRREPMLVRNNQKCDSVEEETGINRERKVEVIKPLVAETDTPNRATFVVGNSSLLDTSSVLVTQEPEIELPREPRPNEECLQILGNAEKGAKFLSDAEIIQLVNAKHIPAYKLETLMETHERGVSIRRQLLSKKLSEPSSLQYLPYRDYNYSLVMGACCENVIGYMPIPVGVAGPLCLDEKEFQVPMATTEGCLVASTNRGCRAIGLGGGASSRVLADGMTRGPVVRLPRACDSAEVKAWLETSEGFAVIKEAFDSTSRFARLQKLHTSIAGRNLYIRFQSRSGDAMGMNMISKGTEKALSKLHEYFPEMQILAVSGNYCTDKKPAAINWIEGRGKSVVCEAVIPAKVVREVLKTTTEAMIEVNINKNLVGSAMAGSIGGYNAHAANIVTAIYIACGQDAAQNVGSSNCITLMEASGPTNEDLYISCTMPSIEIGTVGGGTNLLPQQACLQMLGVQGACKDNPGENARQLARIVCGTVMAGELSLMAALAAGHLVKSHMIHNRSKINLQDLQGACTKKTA
Conditions: read-out: IC₅₀ value for inhibition of HMG-CoA reductase

For CCC(C)C(=O)OC1CC(C)C=C2C=CC(C)C(CCC(O)CC(O)CC(=O)O)C21 (stereo not drawn) [Mevinolinic acid, [1S-[1α(βS*,δS*),2α,6β,8β(R*)8aα]]-1,2,6,7,8,8a-hexahydro-β,δ-dihydroxy-2,6-dimethyl-8-(2-methyl-1-oxobutoxy)-1-naphthaleneheptanoic acid], the IC50 is given as ~5.6 nM.
